The nature of data set [1]: Lung to plasma MPA ratio after inhaled dosing of MPS, MMF or mono-C16MP in mice. Format: in vivo. As to conditions: inhalation, C57BL/6 mice, 0-6 h post-dose. How it is done: Studies to determine the lung to plasma ratio obtained by inhalation of mycophenolate sodium (MPS), mycophenolate mofetil (MMF), and hexadecyl mycophenolate (mono-C16MP) were conducted.
In each study group, C57BL/6 mice were given MPS, MMF or mono-C16MP by inhalation and the lung and plasma mycophenolic acid (MPA) concentrations were measured at t=0, 0.5, 1, 2, 4, and 6 h post-dose.
For each mouse in the study, the lung to plasma MPA ratios were calculated; the individual calculated ratios were averaged for each treatment group and the average values were plotted, shown in FIG. 6.

Data set [2] addresses T1, Human Inosine 5′-Monophosphate Dehydrogenase 1 (IMPDH) (Homo sapiens, UniProt P20839).
T1 construct: purchased R&D Systems 8904DH
Kind of data set: Inhibition of human inosine 5′-monophosphate dehydrogenase (IMPDH assay kit). It is filed as biochemical. The text has this: Human Inosine 5′-Monophosphate Dehydrogenase 1 (IMPDH) catalyzes the nicotinamide adenine dinucleotide (NAD)-dependent oxidation of inosine-5′-monophosphate (IMP) to xanthosine-5′-monophosphate (XMP), which is the committed step in de novo guanosine nucleotide biosynthesis. B and T lymphocytes depend on IMPDH activity to generate the guanosine nucleotide levels needed to initiate a proliferative response to mitogen or antigen.
A comparison of the ability of MPA and hexadecyl mycophenolate (mono-C16MP) to inhibit IMPDH was undertaken.
IMPDH (R&D Systems 8904DH) was incubated with mycophenolic acid (MPA) and, separately, mono-C16MP at concentrations ranging from about 0.015 to 15 μM. The IMPDH activity was determined using a BMR Service IMPDH assay kit (E-119).
Inhibition of IMPDH was calculated as a percentage of IMPDH activity in the absence of MPA.

Data set [3] has as its system LPS-stimulated TNF-α production in rat alveolar macrophages (NR8383). Kind of data set: Inhibition of LPS-stimulated TNF-α production in rat alveolar macrophages (NR8383), TNF ELISA. Format: cell-based. As to conditions: Macrophage, NR8383 cells, co-treated with 25 ng/mL LPS, 20 h. As for the experimental part:
(§1) Rat alveolar macrophages (NR8383) were co-treated with 25 ng/mL lipopolysaccharide (LPS) and mycophenolate sodium at concentrations ranging from 0.15 to about 15 μm for a period of 20 h. After this period, the cell supernatants were collected for TNF measurement and the remaining macrophages were assessed for cytotoxicity. TNF concentrations were assayed using a rat TNF ELISA kit available from ThermoFisher. Cytotoxicity was determined using the CellTox green assay available from Promega.
(§2) Inhibition of TNF-α production was calculated as a percentage of LPS-stimulated TNF production in the absence of mycophenolate sodium.

Data set [4] deals with THP-1 derived human macrophages. The data set is described as follows: Cytotoxicity toward human THP-1 derived macrophages, CellTox green assay. Format: cell-based. As for the experimental part: (§3) THP-1 cells were cultured in media with 50 ng/mL phorbol myristate acetate (PMA) for 24 h and then in fresh media without PMA for an additional 24 h. […] The well plates were treated with mycophenolate sodium at concentrations ranging from 0.03 to 10 μm and incubated for a period for 4 h. After this period, LPS was added to each well plate at a concentration of 100 pg/mL and the LPS-, mycophenolate-treated well plates were incubated for 16 h. After 16 h, the cell supernatants were collected for TNF measurement and the remaining macrophages were assessed for cytotoxicity. TNF concentrations were assayed using a human TNF ELISA kit available from ThermoFisher. Cytotoxicity was determined using the CellTox green assay available from Promega.
as §2

In data set [5] the test system is LPS-stimulated TNF-α production in THP-1 derived human macrophages. The data set is described as follows: Inhibition of LPS-stimulated TNF-α production in human THP-1 derived macrophages, TNF ELISA. Format: cell-based. As to conditions: 4 h pre-incubation, then 100 pg/mL LPS for 16 h. How it is done: as §3, §2
(In general: In an ELISA, binding on a coated surface is turned into a signal by an enzyme label.)

Data set [6] relates to rat alveolar macrophages (NR8383). Kind of data set: Cytotoxicity toward rat alveolar macrophages (NR8383), CellTox green assay. It is filed as cell-based. As to conditions: NR8383 cells, any concentration tested (0.15 to about 15 μm), 20 h. How it is done:
as §1, §2

T1 sequence (P20839 whole entry): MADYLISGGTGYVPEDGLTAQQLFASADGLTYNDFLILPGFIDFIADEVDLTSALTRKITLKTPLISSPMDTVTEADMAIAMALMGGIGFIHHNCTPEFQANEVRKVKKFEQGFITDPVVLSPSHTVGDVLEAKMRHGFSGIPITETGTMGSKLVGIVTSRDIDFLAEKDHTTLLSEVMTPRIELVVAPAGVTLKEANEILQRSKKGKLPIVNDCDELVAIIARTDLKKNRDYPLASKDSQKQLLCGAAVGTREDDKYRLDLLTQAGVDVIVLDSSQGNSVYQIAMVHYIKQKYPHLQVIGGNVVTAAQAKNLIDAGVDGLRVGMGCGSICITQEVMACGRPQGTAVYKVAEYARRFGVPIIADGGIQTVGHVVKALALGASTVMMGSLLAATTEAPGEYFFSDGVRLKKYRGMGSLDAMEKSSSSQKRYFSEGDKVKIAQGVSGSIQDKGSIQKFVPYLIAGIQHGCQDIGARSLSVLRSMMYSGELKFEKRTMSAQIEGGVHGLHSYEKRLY

For `CCCCCCCCCCCCCCCCOC(=O)CC/C(C)=C/Cc1c(O)c2c(c(C)c1OC)COC2=O` [mono-C16MP, hexadecyl mycophenolate], the “Lung to plasma exposure ratio of MPA compared to the ratio obtained with MPS or MMF” value in data set [1] is “higher lung to plasma exposure ratio”. Further, the “Inhibition of IMPDH” value in data set [2] (about 0.015 to 15 μM tested) was “does not inhibit IMPDH in a concentration-dependent manner”.
Regarding `COc1c(C)c2c(c(O)c1C/C=C(\C)CCC(=O)O)C(=O)OC2` [mycophenolate sodium], the results for the maximum response (Emax) in data set [3] and in data set [5] were 54% and 67%, respectively. Further, the IC50 was 1500 nM in data set [3] and 1400 nM in data set [5]. For the same compound, the Cytotoxicity in data set [4] (3 μM, P<0.05) is given as 6.6%; in data set [4] (10 μM, P<0.05), 8.9%; in data set [4] (concentrations <3 μM), “no significant cytotoxicity”; in data set [6] it was “no significant cytotoxicity”.
For the compound `COc1c(C)c2c(c(O)c1C/C=C(\C)CCC(=O)O)C(=O)OC2` [MPA, (4E)-6-(4-hydroxy-6-methoxy-7-methyl-3-oxo-1,3-dihydro-2-benzofuran-5-yl)-4methylhex-4-enoic acid], the IC50 in data set [2] stood at 140 nM.

A word on the Emax: it is the size of the effect at its maximum, as opposed to the concentration needed. By IC50 is commonly meant the concentration that gives 50% inhibition.

(Values after US20170050945A1, “COMPOSITIONS AND METHODS FOR THE TREATMENT OF SARCOIDOSIS” (INSMED INCORPORATED, priority 2015, published 2017).)
